Data taken from patent US6541631B1, “Methods of separating FTC isomers and derivatives thereof” (Pharma-Eco Laboratories, Inc., priority 1999, dated 2003).

Test: Solubility of cis-FTC Ester and cis-FTC Alcohol in various solvent systems
Assay type: physicochemical
Description: Therefore, the solubility of the FTC ester in several solvent systems was determined.
Therefore, the solubility of the cis-FTC Alcohol in several solvent systems was determined.

Nc1nc(=O)n([C@@H]2CS[C@H](CO)O2)cc1F (relative stereo) [cis-FTC Alcohol, cis-5-fluoro-1-{2-(hydroxymethyl)-1,3-oxathiolan-5-yl}cytosine]
Solubility (100% acetonitrile, RT): 0.38%
Solubility (100% ethanol, RT): 0.51%
Solubility (100% isopropyl alcohol, RT): 0.38%
Solubility (100% methanol, 40-45° C.): 3.21%
Solubility (100% methanol, RT): 0.77%
Solubility (100% water, RT): 0.37%

CCCC(=O)OC[C@@H]1O[C@H](n2cc(F)c(N)nc2=O)CS1 (relative stereo) [cis-FTC Ester, cis-{5-(4-amino-5-fluoro-2-oxo-1(2H)-pyrimidinyl)-1,3-oxathiolan-2-yl}methyl butanoate]
Solubility (20% isopropyl alcohol/80% water, 40-45° C.): 3.59%
Solubility (50% ethanol/50% methanol, 20° C.): 9.03%
Solubility (70% water/30% 2-propanol, 20° C.): 2.40%
Solubility (70% water/30% 2-propanol, 35° C.): 5.39%
Solubility (74.6% water/13.99% 2-propanol/11.41% butanol, 20° C.): 3.16%
Solubility (74.6% water/13.99% 2-propanol/11.41% butanol, 35° C.): 10.5%
Solubility (80% water/5.5% 2-propanol/14.5% butanol, 20° C.): 2.55%
Solubility (80% water/10% 2-propanol/10% butanol, 20° C.): 2.27%
Solubility (80% water/10% 2-propanol/10% butanol, 35° C.): 5.94%
Solubility (80% water/15% 2-propanol/5% butanol, 20° C.): 2.57%
Solubility (80% water/15% 2-propanol/5% tetrahydrofuran, 20° C.): 0.89%
Solubility (80% water/20% 2-butanol, 20° C.): 3.00%
Solubility (80% water/20% 2-propanol, 20° C.): 1.60%
Solubility (80% water/20% 2-propanol, 35° C.): 3.80%
Solubility (80% water/20% ethanol, 20° C.): 0.52%
Solubility (80% water/20% methanol, 20° C.): 0.81%
Solubility (80% water/20% tetrahydrofuran, 20° C.): 1.80%
Solubility (85% water/10% 2-propanol/5% tetrahydrofuran, 20° C.): 0.64%
Solubility (85% water/15% 2-propanol, 35° C.): 0.70%
Solubility (85% water/15% dimethylformamide, 20° C.): 1.24%
Solubility (90% water/10% dimethylformamide, 20° C.): 1.13%
Solubility (95% water/5% dimethylformamide, 20° C.): 0.47%
Solubility (100% 2-propanol, 35° C.): 2.68%
Solubility (100% acetonitrile, 40-45 C): 3.85%
Solubility (100% acetonitrile, 50° C.): 6.20%
Solubility (100% acetonitrile, RT): 1.41%
Solubility (100% ethanol, 20° C.): 4.36%
Solubility (100% ethanol, RT, 40-45 C): 1.28%
Solubility (100% ethyl acetate, 20° C.): 3.03%??
Solubility (100% isopropyl alcohol, RT, 40-45° C.): 0.38%
Solubility (100% methanol, 20° C.): 11.73%
